Measurements as given in EP1680415B1, “PYRROLIDINYL UREA DERIVATIVES AS ANGIOGENESIS INHIBITORS” (ABBOTT LABORATORIES, priority 2003, dated 2005).

System: HMVEC
Assay: human microvascular endothelial (HMVEC) migration assay
Type: cell-based
Settings: Inhibition of HMVEC migration, activators 15 ng/mL bFGF/VEGF, 4 hours at 37 °C, compared to a positive control; for inhibition at 0.0001 µM / inhibition at 10 pM / inhibition at 0.001 µM: Homo sapiens; for inhibition at 0.0001 µM: 0.1 nM; for inhibition at 0.001 µM: 1 nM
Experimental: The human microvascular endothelial (HMVEC) migration assay was run according to the procedure of S. S. Tolsma, O. V. Volpert, D. J. Good, W. F. Frazier, P. J. Polverini and N. Bouck, J. Cell Biol. 122, 497-511 (1993).
The HMVEC migration assay was carried out using Human Microvascular Endothelial Cells-Dermal (single donor) and Human Microvascular Endothelial Cells, (neonatal). The BCE or HMVEC cells were starved overnight in DME containing 0.01% bovine serum albumin (BSA). Cells were then harvested with trypsin and resuspended in DME with 0.01 % BSA at a concentration of 1.5 X 10^6 cells per mL. Cells were added to the bottom of a 48 well modified Boyden chamber (Nucleopore Corporation, Cabin John, MD). The chamber was assembled and inverted, and cells were allowed to attach for 2 hours at 37 °C to polycarbonate chemotaxis membranes (5 µm pore size) that had been soaked in 0.01 % gelatin overnight and dried. The chamber was then reinverted, and test substances (total volume of 50 µL), including activators, 15 ng/mL bFGF/VEGF, were added to the wells of the upper chamber. The apparatus was incubated for 4 hours at 37 °C. Membranes were recovered, fixed and stained (Diff Quick, Fisher Scientific) and the number of cells that had migrated to the upper chamber per 3 high power fields counted. Background migration to DME + […] was subtracted and the data reported as the number of cells migrated per 10 high power fields (400X) or, when results from multiple experiments were combined, as the percent inhibition of migration compared to a positive control.

For `Cc1ccc(C(=O)N2CC[C@@H](NC(=O)N3CCN(CC(=O)N4CCCCC4)CC3)C2)cn1` [Example 80, N-{(3R)-1-[(6-methylpyridin-3-yl)carbonyl]pyrrolidin-3-yl}-4-(2-oxo-2-piperidin-1-ylethyl)piperazine-1-carboxamide], which inhibition at 0.0001 µM is on record?
The inhibition at 0.0001 µM was 73%.

With `Cc1ccc(C(=O)N2CC[C@@H](NC(=O)NC3CCC(C)CC3)C2)cn1` (stereo partly drawn) [Example 20, N-(4-methylcyclohexyl)-N'-{(3R)-1-[(6-methyl-3-pyridinyl)carbonyl]-3-pyrrolidinyl}urea] as the compound, how does the inhibition at 0.0001 µM read?
Its inhibition at 0.0001 µM is 67%.

With `COCC1CCCN(C(=O)N[C@@H]2CCN(C(=O)c3ccc(C)nc3)C2)C1` (stereo partly drawn) [Example 97, 3-(methoxymethyl)-N-{(3R)-1-[(6-methylpyridin-3-yl)carbonyl]pyrrolidin-3-yl}piperidine-1-carboxamide] as the compound, how does the inhibition at 10 pM (0.01 nM) read?
Its inhibition at 10 pM is 54%.

For `CCN(CCOC)C(=O)N[C@@H]1CCN(C(=O)c2ccc(C)nc2)C1` [Example 71, N-ethyl-N-(2-methoxyethyl)-N'-{(3R)-1-[(6-methylpyridin-3-yl)carbonyl]pyrrolidin-3-yl}urea], which inhibition at 0.0001 µM is on record?
The inhibition at 0.0001 µM was 53%.

For `Cc1ccc(C(=O)N2CC[C@@H](NC(=O)N3CCN(C(=O)C4CCCCC4)CC3)C2)cn1` [Example 81, 4-(cyclohexylcarbonyl)-N-{(3R)-1-[(6-methylpyridin-3-yl)carbonyl]pyrrolidin-3-yl}piperazine-1-carboxamide], which inhibition at 0.0001 µM is on record?
The inhibition at 0.0001 µM was 55%.

How did the inhibition at 0.0001 µM turn out when `COCCN(C(=O)N[C@@H]1CCN(C(=O)c2ccc(C)nc2Cl)C1)C(C)C` [Example 35, N'-{(3R)-1-[(2-chloro-6-methylpyridin-3-yl)carbonyl]pyrrolidin-3-yl}-N-isopropyl-N-(2-methoxyethyl)urea] was run?
The inhibition at 0.0001 µM was 70%.

For `Cc1ccc(C(=O)N2CCC(NC(=O)N(C)CC(O)c3ccccc3)C2)cn1` (stereo not drawn) [Example 83, N-(2-hydroxy-2-phenylethyl)-N-methyl-N'-{1-[(6-methylpyridin-3-yl)carbonyl]pyrrolidin-3-yl}urea], which inhibition at 0.0001 µM is on record?
Its inhibition at 0.0001 µM is 80%.

How did the inhibition at 0.001 µM turn out when `Cc1ccc(C(=O)N2CC[C@@H](NC(=O)NCCCOC(C)C)C2)c(Cl)n1` [Example 39, N-{(3R)-1-[(2-chloro-6-methylpyridin-3-yl)carbonyl]pyrrolidin-3-yl}-N'-(3-isopropoxypropyl)urea] was run?
The inhibition at 0.001 µM was 72%.

`Cc1ccc(C(=O)N2CC[C@@H](NC(=O)NCC3CCCCC3)C2)cn1` [Example 21, N-(cyclohexylmethyl)-N'-{(3R)-1-[(6-methyl-3-pyridinyl)carbonyl]-3-pyrrolidinyl}urea] was tested. Which inhibition at 0.0001 µM did it give?
The inhibition at 0.0001 µM was 90%.

Which “% Inhibition @ 0.01 nM” value (0.01 nM) does the source give for “4-methyl-N-{(3R)-1-[(6-methylpyridin-3-yl)carbonyl]pyrrolidin-3-yl}-1,4-diazepane-1-carboxamide [Example 94]” here?
The value was 57%.

Which inhibition at 0.0001 µM does the source give for `Cc1ccc(C(=O)N2CC[C@@H](NC(=O)N3CCC(C(N)=O)CC3)C2)cn1` [Example 86, N^1-{(3R)-1-[(6-methylpyridin-3-yl)carbonyl]pyrrolidin-3-yl}piperidine-1,4-dicarboxamide] here?
Its inhibition at 0.0001 µM is 74%.

Which inhibition at 0.0001 µM does the source give for `Cc1ccc(C(=O)N2CC[C@@H](NC(=O)N(C)CCC(C)C)C2)cn1` [Example 61, N-methyl-N-(3-methylbutyl)-N'-{(3R)-1-[(6-methylpyridin-3-yl)carbonyl]pyrrolidin-3-yl}urea] here?
Its inhibition at 0.0001 µM is 66%.

For `Cc1ccc(C(=O)N2CC[C@@H](NC(=O)NCCC(C)(C)C)C2)cn1` [Example 10, N-(3,3-dimethylbutyl)-N'-{(3R)-1-[(6-methyl-3-pyridinyl)carbonyl]-3-pyrrolidinyl}urea], which inhibition at 0.0001 µM is on record?
The inhibition at 0.0001 µM was 65%.

Which inhibition at 0.0001 µM does the source give for `Cc1ccc(C(=O)N2CC[C@@H](NC(=O)NCC(C)C)C2)cn1` [Example 7, N-isobutyl-N'-{(3R)-1-[(6-methyl-3-pyridinyl)carbonyl]-3-pyrrolidinyl}urea] here?
Its inhibition at 0.0001 µM is 90%.

`Cc1ccc(C(=O)N2CC[C@@H](NC(=O)NC3CCCCC3)C2)cn1` [Example 19, N-cyclohexyl-N'-{(3R)-1-[(6-methyl-3-pyridinyl)carbonyl]-3-pyrrolidinyl}urea] was tested. Which inhibition at 0.0001 µM did it give?
Its inhibition at 0.0001 µM is 63%.

`CCOCCN1CCN(C(=O)N[C@@H]2CCN(C(=O)c3ccc(C)nc3)C2)CC1` [Example 77, 4-(2-ethoxyethyl)-N-{(3R)-1-[(6-methylpyridin-3-yl)carbonyl]pyrrolidin-3-yl}piperazine-1-carboxamide] was tested. Which inhibition at 0.0001 µM did it give?
Its inhibition at 0.0001 µM is 58%.

Which inhibition at 0.0001 µM does the source give for `CCOCCNC(=O)N[C@@H]1CCN(C(=O)c2ccc(C)nc2)C1` [Example 13, N-(2-ethoxyethyl)-N'-{(3R)-1-[(6-methyl-3-pyridinyl)carbonyl]-3-pyrrolidinyl}urea] here?
The inhibition at 0.0001 µM was 83%.

`Cc1ccc(C(=O)N2CC[C@@H](NC(=O)N(CCc3ccccc3)Cc3ccccc3)C2)cn1` [Example 54, N-benzyl-N'-{(3R)-1-[(6-methylpyridin-3-yl)carbonyl]pyrrolidin-3-yl}-N-(2-phenylethyl)urea] was tested. Which inhibition at 0.001 µM did it give?
The inhibition at 0.001 µM was 78%.

How did the inhibition at 10 pM (0.01 nM) turn out when `Cc1ccc(C(=O)N2CC[C@@H](NC(=O)N3CCN(c4ccccc4F)CC3)C2)cn1` [Example 91, 4-(2-fluorophenyl)-N-{(3R)-1-[(6-methylpyridin-3-yl)carbonyl]pyrrolidin-3-yl}piperazine-1-carboxamide] was run?
The inhibition at 10 pM was 57%.

For `Cc1ccc(C(=O)N2CC[C@@H](NC(=O)N3CCC(n4c(=O)[nH]c5ccccc54)CC3)C2)cn1` [Example 56, N-{(3R)-1-[(6-methylpyridin-3-yl)carbonyl]pyrrolidin-3-yl}-4-(2-oxo-2,3-dihydro-1H-benzimidazol-1-yl)piperidine-1-carboxamide], which inhibition at 0.0001 µM is on record?
Its inhibition at 0.0001 µM is 86%.

For `Cc1ccc(C(=O)N2CC[C@@H](NC(=O)NCC(O)CO)C2)cn1` (stereo partly drawn) [Example 27, N-(2,3-dihydroxypropyl)-N'-{(3R)-1-[(6-methyl-3-pyridinyl)carbonyl]-3-pyrrolidinyl}urea], which inhibition at 0.0001 µM is on record?
The inhibition at 0.0001 µM was 83%.

For `CCNC(=O)N[C@@H]1CCN(C(=O)c2ccc(C)nc2)C1` [Example 6, N-ethyl-N'-{(3R)-1-[(6-methyl-3-pyridinyl)carbonyl]-3-pyrrolidinyl}urea], which inhibition at 0.0001 µM is on record?
The inhibition at 0.0001 µM was 70%.

How did the inhibition at 0.001 µM turn out when `CCCN(C(=O)N[C@@H]1CCN(C(=O)c2ccc(C)nc2)C1)C(C)CC` (stereo partly drawn) [Example 65, N-(sec-butyl)-N'-{(3R)-1-[(6-methylpyridin-3-yl)carbonyl]pyrrolidin-3-yl}-N-propylurea] was run?
Its inhibition at 0.001 µM is 98%.

With `Cc1ccc(C(=O)N2CC[C@@H](NC(=O)NCCCN3CCOCC3)C2)cn1` [Example 3, N-{(3R)-1-[(6-methyl-3-pyridinyl)carbonyl]-3-pyrrolidinyl}-N'-[3-(4-morpholinyl)propyl]urea] as the compound, how does the inhibition at 0.0001 µM read?
The inhibition at 0.0001 µM was 60%.

With `Cc1ccc(C(=O)N2CC[C@@H](NC(=O)NC3CCC3)C2)cn1` [Example 18, N-cyclobutyl-N'-{(3R)-1-[(6-methyl-3-pyridinyl)carbonyl]-3-pyrrolidinyl}urea] as the compound, how does the inhibition at 0.0001 µM read?
Its inhibition at 0.0001 µM is 61%.

How did the inhibition at 0.0001 µM turn out when `C#CCNC(=O)N[C@@H]1CCN(C(=O)c2ccc(C)nc2)C1` [Example 16, N-{(3R)-1-[(6-methyl-3-pyridinyl)carbonyl]-3-pyrrolidinyl}-N'-2-propynylurea] was run?
Its inhibition at 0.0001 µM is 72%.

For `Cc1ccc(C(=O)N2CC[C@@H](NC(=O)N3CC(C)OC(C)C3)C2)cn1` (stereo partly drawn) [Example 88, 2,6-dimethyl-N-{(3R)-1-[(6-methylpyridin-3-yl)carbonyl]pyrrolidin-3-yl}morpholine-4-carboxamide], which inhibition at 10 pM (0.01 nM) is on record?
Its inhibition at 10 pM is 81%.
